The text below walks through data of patent US20070275977A1, “N-OXIDES OF PYRIDYLMETHYL -PIPERAZINE AND -PIPERIDINE DERIVATIVES” (priority 2006, published 2007).

For one data set, the target named is Dopamine-D2 (Homo sapiens, UniProt P14416). Nature of the data set: In vitro receptor affinity, Dopamine-D2. It is filed as binding. The conditions noted are these: radioligand [3H]-spiperone, read-out: K1 (in vitro receptor affinity). The method, then:
(§1) ln vitro affinity for neurotransmitter receptors: The binding data collected below were either obtained by CE REP (128, rue Danton, 92500 Rueil-Malmaison, France) or at Solvay Pharmaceuticals B.V. (C. J. van Houtenlaan 36, 1381 CP Weesp, The Netherlands), using well documented standard procedures. The affinities for dopamine-D2 and 5-HT1A receptors for instance, were measured as described by Creese (1997) and Gozlan (1983) respectively.

The next data set has as its target Dopamine-D3 (Homo sapiens, UniProt P35462). Nature of the data set: In vitro receptor affinity, Dopamine-D3. It is filed as binding. The conditions noted are these: radioligand [3H]-spiperone, read-out: K1 (in vitro receptor affinity). The method, then:
as §1

The next data set deals with Dopamine-D4 (Homo sapiens, UniProt P21917). Nature of the data set: In vitro receptor affinity, Dopamine-D4. It is filed as binding. The conditions noted are these: radioligand [3H]-spiperone, read-out: K1 (in vitro receptor affinity). The method, then:
as §1

For the next data set, the target named is Serotonin-5-HT1D. Nature of the data set: In vitro receptor affinity, Serotonin-5-HT1D. It is filed as binding. The conditions noted are these: bovine, radioligand [3H]-serotonin; read-out: K1 (in vitro receptor affinity). The method, then: as §1
In another data set the target is Serotonin-5-HT7 (Homo sapiens, UniProt P34969). Nature of the data set: In vitro receptor affinity, Serotonin-5-HT7. The conditions noted are these: radioligand [3H]-LSD, read-out: K1 (in vitro receptor affinity). It is filed as binding. The method, then: as §1
For the next data set, the target named is α1-adrenergic. Nature of the data set: In vitro receptor affinity, α1-adrenergic. The conditions noted are these: rat, radioligand [3H]-prazosin; read-out: K1 (in vitro receptor affinity). Format: binding. The method, then:
as §1

A further data set addresses Muscarine-M1 (Homo sapiens, UniProt P11229). Nature of the data set: In vitro receptor affinity, Muscarine-M1. Format: binding. The conditions noted are these: radioligand [3H]-pirenzepine, read-out: K1 (in vitro receptor affinity). The method, then:
as §1

For data set [1], the system named is Apomorphine-induced climbing behaviour in mice. As to the kind of experiment: Antagonism of apomorphine-induced climbing behaviour in mice. To be noted: Mus musculus, po, read-out: Antagon. apomorphine ind. climbing: ED50. Format: in vivo. The method, then:
For oral (p.o.) administration: to the desired quantity (0.5-5 mg) of the solid test compound in a glass tube, some glass beads were added and the solid was milled by vortexing for 2 minutes. After addition of 1 ml of a solution of 1% methylcellulose in water and 2% (v/v) of Poloxamer 188 (Lutrol F68), the compound was suspended by vortexing for 10 minutes. The pH was adjusted to 7. Remaining particles in the suspension were further suspended by using an ultrasonic bath.
(§2) Lower lip retraction, an in vivo animal model for serotonin 5-HT1A receptor agonistic activity, was measured according to the method described by Berendsen (1989); Apomorphine-induced climbing behaviour in mice, an in vivo animal model for dopamine-D2 receptor antagonistic activity, was determined according to the method described by Costall (1978).

The subject of data set [2] is neurotransmitter receptors. As to the kind of experiment: Pharmacological profile in vitro (overall statement). The method, then: as §1
In vitro (ant)agonistic activity at human D2 receptors and 5-HT1A receptors was measured according to the methods described by Solomon (1974) and Weiss (1985) respectively, on the formation of adenylate cyclase in CHO cell-lines expressing these cloned receptors.

Data set [3] in a line: Pharmacological profile in vivo (overall statement). The conditions noted are these: in vivo. The method, then: as §2
The nature of data set [4]: Plasma concentrations in mice after i.v. or p.o. administration, blood analyzed by LC-MS. To be noted: i.v. or p.o. It is filed as in vivo. The method, then: The LC-MS system consists of 2 Perkin elmer series 200 micro pumps. The pumps were connected to each other by a 50 pI tee mixer, and connected to a Gilson 215 auto sampler. The method was as follows:
The auto sampler was connected to a Waters Atlantis C18 30*4.6 mm column with 3 μm particles. The column was thermo stated in a Perkin Elmer series 200 column oven at 40° C. The column was connected to a Perkin Elmer series 200 UV meter with a 2.7 μl flowcel. The wavelength was set to 254 nm. The UV meter was connected to a Sciex API 150EX mass spectrometer. The mass spectrometer had the following parameters: Scanrange:150-900 a.m.u., polarity: positive; scan mode: profile; resolution Q1: UNIT; step size: 0.10 a.m.u.; time per scan: 0.500 sec; NEB: 10; CUR: 10; IS: 5200; TEM: 325; DF: 30; FP: 225 and EP: 10. The light scattering detector was connected to the Sciex API 150. The light scattering detector was a Sedere Sedex 55 operating at 50° C. and 3 bar N2. The complete system was controlled by a G3 powermac.
For oral (p.o.) administration: to the desired quantity (0.5-5 mg) of the solid test compound in a glass tube, some glass beads were added and the solid was milled by vortexing for 2 minutes. After addition of 1 ml of a solution of 1% methylcellulose in water and 2% (v/v) of Poloxamer 188 (Lutrol F68), the compound was suspended by vortexing for 10 minutes. The pH was adjusted to 7. […]

Data set [5] is described as follows: Metabolism studies in humans. Format: in vivo. To be noted: in man (also not in any animal species used in toxicology studies). From the text: (§3) Psychotropic pyridylmethyl -piperazine and -piperidine derivatives are disclosed in EP 0 908 458. […] By now it is very well known that N-oxides are metabolites of many tertiary amines, and in most cases are also intermediates between tertiary amines and their N-dealkylated analogs. Most, but not all, tertiary amine drugs give rise to N-oxides. For instance, this is the case with morphine, imipramine, promazine, cinnarizine and nicotine, to name just a few. How much N-oxidation takes place varies from trace amounts to a near quantitative conversion. […] The most famous example of these is chlordiazepoxide (Librium®), one of the most frequently used drugs in psychiatric and general medicine. […] Some N-oxides undergo nearly quantitative reductive conversion to the corresponding tertiary amines and in other cases the conversion is a mere trace reaction or even completely absent (Bickel, 1969). Thus, the formation of N-oxides and their corresponding tertiary amines is unpredictable. […] When they are, the reaction can be a mere trace or nearly quantitative.

Data set [6] can be described thus: Toxicological studies, plasma of rats. Format: in vivo. The conditions noted are these: rats dosed with SLV313.
Source text: as §3

A short description of data set [7]: Toxicological studies, plasma of dogs. It is filed as in vivo. To be noted: dogs dosed with SLV313.
Source text: as §3

Chain of Serotonin-5-HT7 (P34969 whole entry): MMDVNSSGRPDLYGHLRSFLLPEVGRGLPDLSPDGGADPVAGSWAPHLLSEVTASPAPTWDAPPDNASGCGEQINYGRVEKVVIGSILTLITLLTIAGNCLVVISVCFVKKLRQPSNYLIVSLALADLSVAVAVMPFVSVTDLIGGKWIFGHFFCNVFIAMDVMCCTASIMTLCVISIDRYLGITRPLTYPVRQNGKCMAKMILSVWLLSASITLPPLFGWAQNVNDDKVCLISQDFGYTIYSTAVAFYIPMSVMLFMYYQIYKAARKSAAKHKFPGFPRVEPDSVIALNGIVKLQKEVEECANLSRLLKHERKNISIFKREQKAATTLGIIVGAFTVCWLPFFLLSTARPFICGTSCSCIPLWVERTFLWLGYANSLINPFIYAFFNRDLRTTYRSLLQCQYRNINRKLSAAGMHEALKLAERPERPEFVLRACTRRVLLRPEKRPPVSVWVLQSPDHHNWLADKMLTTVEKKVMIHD
Chain of Dopamine-D4 (P21917 whole entry): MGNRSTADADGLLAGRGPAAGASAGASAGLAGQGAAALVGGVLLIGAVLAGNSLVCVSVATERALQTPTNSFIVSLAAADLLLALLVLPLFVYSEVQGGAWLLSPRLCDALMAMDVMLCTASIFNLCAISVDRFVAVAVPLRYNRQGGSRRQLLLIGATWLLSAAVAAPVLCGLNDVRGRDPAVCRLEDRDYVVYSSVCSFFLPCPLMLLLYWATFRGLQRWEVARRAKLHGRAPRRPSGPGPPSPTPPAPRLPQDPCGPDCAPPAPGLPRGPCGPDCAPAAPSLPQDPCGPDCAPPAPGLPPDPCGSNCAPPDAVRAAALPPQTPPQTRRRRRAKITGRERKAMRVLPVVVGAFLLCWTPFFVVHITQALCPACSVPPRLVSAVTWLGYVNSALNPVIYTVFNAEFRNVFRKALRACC
Chain of Muscarine-M1 (P11229 whole entry): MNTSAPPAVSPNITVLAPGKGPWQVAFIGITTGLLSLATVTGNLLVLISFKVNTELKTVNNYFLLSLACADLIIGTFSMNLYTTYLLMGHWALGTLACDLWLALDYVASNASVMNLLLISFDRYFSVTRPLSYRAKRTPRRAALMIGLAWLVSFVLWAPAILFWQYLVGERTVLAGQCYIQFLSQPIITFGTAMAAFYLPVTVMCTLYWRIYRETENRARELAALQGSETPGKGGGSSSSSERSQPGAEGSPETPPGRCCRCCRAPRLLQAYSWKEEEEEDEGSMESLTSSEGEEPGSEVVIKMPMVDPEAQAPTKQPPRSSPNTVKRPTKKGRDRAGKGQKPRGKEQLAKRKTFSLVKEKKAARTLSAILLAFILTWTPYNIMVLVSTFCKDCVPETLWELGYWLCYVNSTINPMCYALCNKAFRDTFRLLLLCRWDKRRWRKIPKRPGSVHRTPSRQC
Chain of Dopamine-D2 (P14416 whole entry): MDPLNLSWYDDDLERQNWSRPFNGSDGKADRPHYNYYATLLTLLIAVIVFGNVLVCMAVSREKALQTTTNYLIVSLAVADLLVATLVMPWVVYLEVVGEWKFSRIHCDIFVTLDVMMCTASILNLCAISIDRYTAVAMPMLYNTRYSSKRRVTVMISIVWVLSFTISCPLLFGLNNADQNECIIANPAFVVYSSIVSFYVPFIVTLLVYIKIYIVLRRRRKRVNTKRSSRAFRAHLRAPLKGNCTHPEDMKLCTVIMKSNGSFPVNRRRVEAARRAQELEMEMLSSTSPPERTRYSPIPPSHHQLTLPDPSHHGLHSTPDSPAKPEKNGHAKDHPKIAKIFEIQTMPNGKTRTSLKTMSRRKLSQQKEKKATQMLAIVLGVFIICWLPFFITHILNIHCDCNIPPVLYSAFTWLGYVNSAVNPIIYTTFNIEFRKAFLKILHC
Chain of Dopamine-D3 (P35462 whole entry): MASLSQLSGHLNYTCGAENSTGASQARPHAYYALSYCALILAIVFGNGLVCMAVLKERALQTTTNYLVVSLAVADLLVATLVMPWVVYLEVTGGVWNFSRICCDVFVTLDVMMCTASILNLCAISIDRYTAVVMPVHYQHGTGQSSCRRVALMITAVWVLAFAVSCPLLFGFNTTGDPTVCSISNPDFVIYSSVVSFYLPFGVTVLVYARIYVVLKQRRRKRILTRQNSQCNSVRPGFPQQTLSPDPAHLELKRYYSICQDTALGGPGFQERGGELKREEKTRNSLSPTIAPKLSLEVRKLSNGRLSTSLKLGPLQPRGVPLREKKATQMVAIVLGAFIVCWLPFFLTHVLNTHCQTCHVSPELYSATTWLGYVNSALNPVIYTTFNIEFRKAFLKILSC

Compound `[O-][n+]1cc(CN2CCN(c3cccc4c3OCCO4)CC2)cc(-c2ccc(F)cc2)c1` [pyridine N-oxide, 1-(2,3-dihydro-1,4-benzodioxin-5-yl)-4-[[5-(4-fluorophenyl)-1-oxido-3-pyridinyl]methyl]-piperazine] showed a melting point of 171 °C. For the same compound, the Ki on Dopamine-D2 amounted to 5 nM. In addition, on Dopamine-D3, the Ki turned out to be 8 nM. Besides, at Dopamine-D4, the Ki was 20 nM. The Ki at Serotonin-5-HT1D worked out at 4000 nM. Further, the Ki on Serotonin-5-HT7 is 100 nM. On α1-adrenergic, the Ki amounted to 1000 nM. Moreover, the Ki at Muscarine-M1 is over 10000 nM. Moreover, the 50% effective dose (ED50) in data set [1] is 0.9 mg/kg. Also, the “pharmacological profile/activity in vitro relative to parent SLV313” value in data set [2] is on record as “identical”. The “pharmacological profile/potency in vivo relative to SLV313” value in data set [3] was “identical”.
For the compound `Fc1ccc(-c2cncc(CN3CCN(c4cccc5c4OCCO5)CC3)c2)cc1` [SLV313, 3-[[4-(2,3-dihydro-1,4-benzodioxin-5-yl)-1-piperazinyl]methyl]-5-(4-fluorophenyl)pyridine, reference compound], the Ki was 10 nM on Dopamine-D4; 13000 nM on Serotonin-5-HT1D; 63 nM on Serotonin-5-HT7; 500 nM on α1-adrenergic; over 10000 nM on Muscarine-M1. The ED50 in data set [1] is 0.5 mg/kg. In addition, in data set [4], the “metabolism to piperazine-N-oxide” value is reported as “not metabolized to its piperazine-N-oxide”. For the same compound, the “piperazine-N-oxide as a metabolite” value in [5] was “has not been detected as a metabolite”. Further, the pyridine-N-oxide in plasma result in data set [6] and in data set [7] was “could not be demonstrated” each time.
